From patent US5763212A, “Inhibiting degradation of a degron-bearing protein” (California Institute of Technology, priority 1995, dated 1998)
Residues, ends and D or L forms follow the SMILES beside them.

System: Arg-e^K-DHFRha (mouse dihydrofolate reductase with e^K extension and ha epitope, from Ub-Arg-e^K-DHFRha)
Assay: Degradation of 35S-labeled N-end rule substrate in ATP-supplemented reticulocyte extract (acid-soluble 35S, SDS-PAGE)
Format: biochemical
Settings: for inhibition of Arg-e^K-DHFRha degradation: FIG. 3A

| Structure (SMILES) | inhibition of Arg-e^K-DHFRha degradation (1 mM Arg-Ala dipeptide, reticulocyte extract) | effect on ubiquitination of Arg-e^K-DHFRha (1 mM Arg-Ala dipeptide, reticulocyte extract, SDS-PAGE) | inhibition of Arg-e^K-DHFRha degradation (20 μM methotrexate, ATP-supplemented reticulocyte extract, 37° C.) | effect on multiubiquitination of Arg-e^K-DHFRha (20 μM methotrexate, ATP-supplemented reticulocyte extract, SDS-PAGE) |
| --- | --- | --- | --- | --- |
| C[C@H](NC(=O)[C@@H](N)CCCNC(=N)N)C(=O)O [Arg-Ala] (H-Arg-Ala-OH) | almost completely inhibited | inhibited | – | – |
| CN(Cc1cnc2nc(N)nc(N)c2n1)c1ccc(C(=O)N[C@@H](CCC(=O)O)C(=O)O)cc1 [methotrexate] | – | – | nearly complete inhibition | enhanced |
